Common to all, as to experiment: growth of human tumour cells (NCI), 48 h
For assay [1], the system named is MOLT-4 leukemia.
In assay [2] the test system is SNB-75 CNS.
In assay [3] the test system is TK-10 renal.
For assay [4], the system named is SF-295 CNS.
The test system of assay [5] is SF-268 CNS.
Assay [6] concerns UACC-62 melanoma.
The subject of assay [7] is SK-MEL-5 melanoma.
Assay [8] deals with A549 NSCLC.
Assay [9] deals with SK-OV-3 ovarian.
Assay [10] concerns OVCAR-3 ovarian.

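In this assay, cells in 96-well plates receive the compound at five concentrations for 48 hours. Endpoints are linearly interpolated between the surrounding concentrations. Here, GI50 denotes the concentration required for 50% inhibition of growth. At the TGI there is no net growth.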 Where only a bound is given, the exact number is not on record here.

Consider `Cc1cc(=O)oc2cc3c(cc12)Oc1ccccc1O3`, for which the TGI is greater than 100 µM in assay [1]; 59.9 µM in assay [2]; greater than 100 µM in [3]; greater than 100 µM in assay [4]; greater than 100 µM in [5]; greater than 100 µM in assay [6]. Besides, the TGI in assay [7], in [8], in assay [9] and in [10] was greater than 100 µM each time.
As to `O=C(CN1CCN(c2ccccc2)CC1)N1CCc2c([nH]c3ccccc23)C1c1cccnc1` (stereo not given), the TGI in assay [1] is greater than 100 µM; in assay [2], 23.4 µM; in assay [3], greater than 45.7 µM; in assay [4], 84.8 µM; in assay [5] it was greater than 100 µM; in [6], greater than 100 µM. Moreover, the TGI in assay [7] is greater than 100 µM; in assay [8], greater than 100 µM; in [9], greater than 88.3 µM; in [10] it was greater than 100 µM.
For `C=C1C(=O)O[C@H]2[C@H]1CC/C(COC(=O)N1CCC[C@H]1C(=O)Nc1ccc(OC)c(C(N)=O)c1O)=C\CC[C@@]1(C)O[C@@H]21`, the GI50 was 2.24 µM in assay [1]; 2.67 µM in assay [2]; 1.92 µM in assay [3]; 12.1 µM in [4]; 5.63 µM in assay [5]; 2.39 µM in assay [6]. The GI50 in assay [7] was 3.48 µM; in assay [8] it was 14.7 µM; in assay [9], 20.9 µM; in assay [10], 1.86 µM. Besides, the TGI in [1] was 5.63 µM; in [2], 14.9 µM; in assay [3], 7.16 µM; in [4], 27.4 µM; in assay [5] it was 24.7 µM; in assay [6], 7.66 µM. Besides, the TGI in assay [7] stood at 14.2 µM; in [8] it was 35.1 µM; in [9] it was 65.6 µM; in assay [10], 4.48 µM.
In the case of `Fc1cccc(COc2ccc(Nc3ncnc4cc(-c5ccc[nH]5)sc34)cc2Cl)c1`, the GI50 in assay [1] is 2.59 µM; in assay [2], 1.19 µM; in assay [3], 0.482 µM; in [4], 0.548 µM; in [5], 1.46 µM; in assay [6], 5.77 µM. The GI50 is 6.01 µM in assay [7], 0.789 µM in [8], 2.41 µM in [9] and 0.151 µM in [10]. The TGI in assay [1] was greater than 25 µM; in [2], 6.35 µM; in assay [3], 2.64 µM; in assay [4] it was greater than 19.9 µM; in assay [5], greater than 14.7 µM; in assay [6], greater than 22.8 µM. Besides, the TGI is greater than 25 µM in assay [7], 4.8 µM in [8], 20.1 µM in assay [9] and 2.99 µM in assay [10].
On to `COc1ccc(-c2cn(-c3ccccc3)c(-c3ccccc3)n2)cc1OC`, for which the GI50 is 2.96 µM in assay [1]; 13.6 µM in [2]; 12.2 µM in assay [3]; 3.5 µM in assay [4]; 3.35 µM in [5]; 10.4 µM in [6]. The GI50 was 8.03 µM in [7], 3.71 µM in [8], 7.44 µM in assay [9] and 2.2 µM in assay [10]. Further, the TGI in assay [1] came out at 10.9 µM; in [2], 28.5 µM; in assay [3] it was 26.1 µM; in assay [4], 17.1 µM; in assay [5], 13.5 µM; in assay [6] it was 22.6 µM. Besides, the TGI turned out to be 20.7 µM in assay [7], 16 µM in assay [8], 20.9 µM in [9] and 5.07 µM in [10].
Turning to `COc1cccc(C2c3cc4c(cc3OC(O)(CO)C2C(=O)O)OCO4)c1` (stereo not given) (tested in a mixture with another compound), the TGI in assay [1] was greater than 100 µM; in assay [2], 54 µM; in assay [3], greater than 100 µM; in assay [4] it was greater than 100 µM; in assay [5] it was greater than 100 µM; in assay [6], greater than 100 µM. Besides, the TGI in assay [7], in assay [8], in [9] and in assay [10] was greater than 100 µM throughout.
As to `N#CC(C(=O)C(=O)NCCCNC(=O)C(=O)C(C#N)c1ccccc1)c1ccccc1` (stereo not given), the TGI in assay [1], in assay [2], in assay [3], in [4], in [5] and in [6] was greater than 100 µM in each case. For the same compound, the TGI in assay [7], in assay [8], in assay [9] and in assay [10] was greater than 100 µM in each case.
In the case of `NC(C(=O)[O-])C(=O)[O-].NC1CCCCC1N.[Pt+4]`, the GI50 in assay [1] was 6.42 µM; in [2], greater than 100 µM; in assay [3] it was 3.1 µM; in [4], 2.27 µM; in assay [5] it was 0.188 µM; in [6], 2.39 µM. Moreover, the GI50 in assay [7] was 1.84 µM; in assay [8], 2.63 µM; in [9], 13.2 µM; in [10] it was 2.45 µM. The TGI was greater than 100 µM in assay [1]; greater than 100 µM in [2]; 8.61 µM in [3]; 32.5 µM in assay [4]; 6.71 µM in assay [5]; 54.5 µM in [6]. Also, the TGI in assay [7] was 12 µM; in assay [8] it was greater than 100 µM; in [9], greater than 100 µM; in assay [10], 24 µM.
With `CC1S(=O)(=O)OCCOS1(=O)=O`, the TGI in assay [1] is greater than 100 µM; in [2] it was greater than 100 µM; in assay [3], greater than 100 µM; in assay [4], greater than 100 µM; in [5] it was greater than 100 µM; in assay [6], greater than 83.5 µM. Further, the TGI in [7], in assay [8], in [9] and in assay [10] was greater than 100 µM throughout.

These data come from PubChem BioAssay (NCI).
